{"source": "patent US10189824B2", "about": "“Pyrimidine-diamine dual HSP90/TRAP1 inhibitors” (CalAsia Pharmaceuticals, Inc., priority 2014, dated 2019)", "key": {"[1]": {"system": "mitochondria isolated from U251MG cells", "test": "TMRE assay, TMRE-loaded isolated mitochondria", "assay_type": "cell-based", "settings": "30° C.", "protocol": "For cell-based assays, cells were treated with various concentrations of the test compounds for 48 hours at 37° C., with 5% CO2. TMRE (200 nM) was then added to wells for 30 min and monitored for changes in fluorescence activity either by fluorescence microscopy using an inverted Zeiss LSM 710 confocal microscope or by spectrophotometry using a fluorescence plate reader (544ex/590em) after washing the cells. Specific TMRE fluorescence was calculated by comparison to matched wells pretreated with 20 uM FCCP for 10 min prior to addition of TMRE. For mitochondria assays, untreated U251MG cells grown to confluence in T75 culture flasks. Mitochondria from these cells were isolated using a mitochondria isolation kit (Thermo Scientific) and loaded with 0.1 mM TMRE in kit buffer at 37° C. for 20 min. After washing, the TMRE-loaded mitochondria (2 ug per well) were incubated in a 96 well black plate with test compounds and monitored kinetically at 30° C. for changes in fluorescence using a fluorescence plate reader (ex 544/em 590). The fluorescence intensity after treatment with 20 um FCCP in control wells corresponded to a fully depolarized state."}, "U251MG cells": {"system": "U251MG cells", "test": "Cell viability assay, cellular dehydrogenase activity (CCK-8)", "assay_type": "cell-based", "settings": "Homo sapiens, U-251; 72 h at 37° C.; FIG. 1A", "protocol": "U251MG cells were maintained at 37° C. and 5% CO2 in RPMI media supplemented with glutamax and containing 10% heat-inactivated fetal bovine serum and 1% penicillin/streptomycin (Life Sciences).\nA cell counting kit (CCK-8 assay kit, Dojindo) and an ADP-Glo assay (Life Technologies) were used to quantitate the effects of test compounds on cell viability. U251MG cells were seeded into 96 well tissue culture plates and incubated for 16 h at 37° C. with 5% CO2. Increasing concentrations of test compounds were added to the wells from DMSO-containing stock solutions to a final DMSO concentration of 0.05% and incubated for 72 hr at 37° C. CCK-8 kit reagent or ADP-GLO reagent were then added to the wells and absorbance was measured at 450 nm (for the CCK assay) using a Synergy HT micro-titer plate reader (Biotek) or luminescence was measured (for the ADP-GLO assay) using a POLARstar Omega micro-titer plate reader (BMG)."}, "HEI193 cells": {"system": "HEI193 cells", "test": "TMRE assay, HEI193 cell mitochondrial integrity", "assay_type": "cell-based, human", "settings": "observed as early as 2 hours after treatment", "protocol": "Mitochondrial integrity was evaluated using Tetramethylrhodamine ethyl ester (TMRE) assay. A TMRE assay kit (Abcam) was used to evaluate Hsp90/TRAP1 inhibitor-induced changes in mitochondrial membrane potential. […] TMRE (200 nM) was then added to wells for 30 min and monitored for changes in fluorescence activity using a fluorescence plate reader (ex544/em 590) after washing the cells. Specific TMRE fluorescence was calculated by comparison to matched wells pretreated with the depolarizing proton ionophore carbonyl cyanide 4-(trifluoromethoxy)phenylhydrazone (FCCP) at 20 uM 10 min prior to addition of TMRE. For mitochondria assays, mitochondria was isolated using a kit from Thermoscientific and loaded with 0.1 mM TMRE. TMRE-loaded mitochondria (2 μg per well) were incubated with test compounds and monitored kinetically at 30° C. for changes in fluorescence using a flurorescence plate reader (ex 544/em 590) (FIGS. 6A, 9A and 12)."}, "[2]": {"system": "mitochondria isolated from HEI193 cells", "test": "Analysis of drug accumulation in the mitochondria", "assay_type": "in vitro ADME, human", "settings": "20 uM", "protocol": "Mitochondria (100 μg) isolated from MDA-MB-231 and […] tumor cell lines were incubated with 20 μM CAP01088 for 30 mins at 30° C. in mitochondrial incubation buffer (MIB: 0.2M sucrose, 10 mM Tris-MOPS, pH 7.4, 5 mM succinaye, 1 mM Pi, 2 μM rotenone, and 10 μM EGTA with modifications as needed). The mitochondria were chilled on ice and collected by centrifugation at 8000 g for 10 min. The supernatant was collected and the mitochondrial pellet was washed twice with MIB and dissolved in lysis buffer (acetonitrile/methanol, 3:1). The concentration of CAP01088 in supernatant and mitochondrial extract was analyzed using a Waters HPLC/Mass spectrometer (FIGS. 6B and 9B)."}, "GBM39": {"system": "GBM39", "test": "Cellular efficacy in Mayo Clinic GBM PDX cell line GBM39", "assay_type": "cell-based", "protocol": "Short-term explant cultures from PDX models were seeded into 96-well Perfecta3D hanging drop plates to form a single spheroid in each well after 2 days. The spheroids were transferred to a round bottom 96 well plate by centrifugation and then incubated with graded concentrations of test compound (8 spheroids per compound concentration). Spheroid volumes were monitored every 6 hours over the course of 5 days using the IncuCyte system (Essen BioScience, MI, US) to provide a growth curve akin to a tumor regrowth assay."}}, "data": [{"compound": "COc1c(C)cnc(CN(CCc2ccccn2)c2cc(Cl)nc(N)n2)c1C", "note": "[Compound 1, 6-chloro-4-N-[(4-methoxy-3,5-dimethylpyridin-2yl)methyl]-4-N-[2-(pyridine-2-yl)ethyl]pyrimidine-2,4-amine]", "values": [{"measurement": "Membrane potential of isolated mitochondria reduced to", "setting": "[1]; 4 uM", "result": 61, "unit": "%"}, {"measurement": "Membrane potential of isolated mitochondria reduced to", "setting": "[1]; 20 uM", "result": 52, "unit": "%"}, {"measurement": "IC50", "setting": "U251MG cells", "result": 1720, "unit": "nM"}]}, {"compound": "COc1c(C)cnc(CN(CC2(c3ccc(F)cc3)CCOCC2)c2cc(Cl)nc(N)n2)c1C", "note": "[Compound A, 6-chloro-4-N-{[4-(4-fluorophenyl)oxan-4-yl]methyl}-4-N-[(4-methoxy-3,5-dimethylpyridin-2-yl)methyl]pyrimidine-2,4-diamine]", "values": [{"measurement": "Effect on TMRE fluorescence in HEI193 cells", "setting": "HEI193 cells", "result": "dose-dependent decrease"}, {"measurement": "Accumulation in isolated mitochondria compared to culture medium", "setting": "[2]", "result": "greater than 6 fold"}, {"measurement": "EC50", "setting": "GBM39", "result": 220, "unit": "nM"}]}]}
